The IC50 is the concentration that inhibits the measured activity by half. Read a low IC50 as greater potency in that assay.

Molecules are shown by their SMILES.

We go through 23 compounds from patent US12240846B2 (Enliven Inc., priority 2020, dated 2025).

One assay concerns the target T1, ABL1 (Homo sapiens, UniProt P00519).
T1 construct: purchased Carna Biosciences
Nature of the assay: Luminescence-based ABL kinase assay (300 μM ATP), ADP-Glo. Format: biochemical. From the text: Compounds were serially diluted in DMSO. […] Luminescence signal positively correlates with kinase activity.
(ADP-Glo first removes unused ATP, then detects ADP through luciferase.)

The next assay concerns the target ABL1 (T315I) (Homo sapiens, UniProt P00519, T315I). The assay is described as above. Format: biochemical.

In the case of `Cc1c(-c2cc3cc(NC(=O)C4CC4)ncc3n2C)ccc2[nH]cnc12` [Compound 19, N-[1-methyl-2-(4-methyl-1H-1,3-benzodiazol-5-yl)pyrrolo[2,3-c]pyridin-5-yl]cyclopropanecarboxamide], the IC50 is 263 nM against ABL1 and 68.3 nM at ABL1 (T315I).
The matching figures for `CCOc1ncccc1-c1cc2cc(NC(=O)[C@H]3C[C@H]3F)ncc2n1C` [Compound 37, (1R,2R)-N-[2-(2-ethoxypyridin-3-yl)-1-methylpyrrolo[2,3-c]pyridin-5-yl]-2-fluorocyclopropane-1-carboxamide]: 35.4 nM and 551 nM.
For `Cc1c(-c2cc3cc(NC(=O)C4CC4)ncc3n2C)ccc2c1CCN2` [Compound 13, N-[1-methyl-2-(4-methyl-2,3-dihydro-1H-indol-5-yl)pyrrolo[2,3-c]pyridin-5-yl]cyclopropanecarboxamide], in that order: 567 nM and 300 nM.
For `CCNC(=O)Nc1cc2cc(-c3ccccc3OC)n(C)c2cn1` [Compound 77, 3-ethyl-1-[2-(2-methoxyphenyl)-1-methylpyrrolo[2,3-c]pyridin-5-yl]urea], in that order: 95.9 nM and 148 nM.
Turning to `COc1ccnc(OC)c1-c1cc2cc(NC(=O)[C@@H]3C[C@H]3CN3CC4CC(C3)N4)ncc2n1C` (single isomer, unassigned) [Example 135, Enantiomer 2], the figures for the IC50 at ABL1 and at ABL1 (T315I) were 10.6 nM and 26 nM, respectively.
The matching figures for `[2H]C([2H])([2H])Oc1ncccc1-c1cc2cc(NC(=O)[C@H]3C[C@H]3F)ncc2n1C` [Compound 33, (1R,2R)-2-fluoro-N-(2-(2-(methoxy-d3)pyridin-3-yl)-1-methyl-1H-pyrrolo[2,3-c]pyridin-5-yl)cyclopropane-1-carboxamide]: 59.5 nM and 183 nM.
For `COc1cc2nccn2cc1-c1cc2cc(NC(=O)[C@@H]3C[C@@H]3F)ncc2n1C` [Compound 71, (1S,2S)-2-fluoro-N-(2-(7-methoxyimidazo[1,2-a]pyridin-6-yl)-1-methyl-1H-pyrrolo[2,3-c]pyridin-5-yl)cyclopropane-1-carboxamide], in that order: 105 nM and 716 nM.
For `COc1ccnc(OC)c1-c1cc2cc(NC(=O)[C@@H]3C[C@H]3CN3CCNCC3)ncc2n1C` (single isomer, unassigned) [Compound 139], in that order: 48.6 nM and 85.9 nM.
Consider `CNc1ncnc(OC)c1-c1cc2cc(NC(=O)[C@@H]3C[C@@H]3F)ncc2n1C` [Compound 109, (1S,2S)-2-fluoro-N-(2-(4-methoxy-6-(methylamino)pyrimidin-5-yl)-1-methyl-1H-pyrrolo[2,3-c]pyridin-5-yl)cyclopropane-1-carboxamide], for which the values for the IC50 at ABL1 and against ABL1 (T315I) were 60.2 nM and 203 nM, respectively.
The matching figures for `COc1ncncc1-c1cc2cc(NC(=O)[C@@H]3C[C@@H]3F)ncc2n1C` [Compound 68, (1S,2S)-2-fluoro-N-(2-(4-methoxypyrimidin-5-yl)-1-methyl-1H-pyrrolo[2,3-c]pyridin-5-yl)cyclopropane-1-carboxamide]: 109 nM and 431 nM.
For `CCN1CCN(CCNC(=O)Nc2cc3cc(-c4c(OC)ncc(F)c4OC)n(C)c3cn2)CC1` [Compound 84, 1-[2-(4-ethylpiperazin-1-yl)ethyl]-3-[2-(5-fluoro-2,4-dimethoxypyridin-3-yl)-1-methylpyrrolo[2,3-c]pyridin-5-yl]urea], in that order: 44.5 nM and 164 nM.
On to `COc1ncccc1-c1cc2cnc(NC(=O)C3CC3)cc2n1C` [Compound 50, N-[2-(2-methoxypyridin-3-yl)-1-methylpyrrolo[3,2-c]pyridin-6-yl]cyclopropanecarboxamide], for which the IC50 against ABL1 was 294 nM; at ABL1 (T315I), 681 nM.
For the compound `COc1ncc(F)c(OC)c1-c1cc2cc(NC(=O)[C@H]3C[C@@H]3CN(C)C)ncc2n1C` (single isomer, unassigned) [Compound 131], the IC50 at ABL1 and on ABL1 (T315I) was 78.3 nM throughout.
As for `CCNC(=O)Nc1cc2cc(-c3cccnc3OC)n(C)c2cn1` [Compound 78, 3-ethyl-1-[2-(2-methoxypyridin-3-yl)-1-methylpyrrolo[2,3-c]pyridin-5-yl]urea], the IC50 against ABL1 is 183 nM; at ABL1 (T315I) it was 411 nM.
The matching figures for `Cc1cc2[nH]ncc2cc1-c1cc2cc(NC(=O)C3CC3)ncc2n1C` [Compound 16, N-(1-methyl-2-(6-methyl-1H-indazol-5-yl)-1H-pyrrolo[2,3-c]pyridin-5-yl)cyclopropanecarboxamide]: 184 nM and 545 nM.
For `COc1nc(C(F)F)nc(OC)c1-c1cc2cc(NC(=O)[C@@H]3C[C@@H]3F)ncc2n1C` [Compound 96, (1S,2S)-N-(2-(2-(difluoromethyl)-4,6-dimethoxypyrimidin-5-yl)-1-methyl-1H-pyrrolo[2,3-c]pyridin-5-yl)-2-fluorocyclopropane-1-carboxamide], in that order: 40.4 nM and 207 nM.
The matching figures for `Cc1c(-c2cc3cc(NC(=O)C4CC4)ncc3n2C)ccc2[nH]ccc12` [Compound 15, N-[1-methyl-2-(4-methyl-1H-indol-5-yl)pyrrolo[2,3-c]pyridin-5-yl]cyclopropanecarboxamide]: 103 nM and 101 nM.
On to `COc1ccccc1-c1cc2cc(NC(=O)[C@H]3C[C@H]3CN3CCOCC3)ncc2n1C` (relative stereo) [Compound 41, cis-N-(2-(2-methoxyphenyl)-1-methyl-1H-pyrrolo[2,3-c]pyridin-5-yl)-2-(morpholinomethyl)cyclopropane-1-carboxamide], for which the IC50 against ABL1 stood at 324 nM; at ABL1 (T315I) it was 212 nM.
The matching figures for `COc1nc(OC)c(-c2cc3cc(NC(=O)[C@@H]4C[C@@H]4F)ncc3n2C)c(OC)n1` [Compound 102, (1S,2S)-2-fluoro-N-(1-methyl-2-(2,4,6-trimethoxypyrimidin-5-yl)-1H-pyrrolo[2,3-c]pyridin-5-yl)cyclopropane-1-carboxamide]: 123 nM and 412 nM.
For `COc1ccccc1-c1cc2cnc(NC(=O)[C@@H]3C[C@@H]3F)cc2n1C` [Compound 51, (1S,2S)-2-fluoro-N-[2-(2-methoxyphenyl)-1-methylpyrrolo[3,2-c]pyridin-6-yl]cyclopropane-1-carboxamide], in that order: 88.6 nM and 64.1 nM.
For `COc1ccnc(OC)c1-c1cc2cc(NC(=O)[C@H]3C[C@@H]3CN3CC4CC(C3)N4)ncc2n1C` (single isomer, unassigned) [Example 135, Enantiomer 1], in that order: 30 nM and 66.7 nM.
Regarding `COc1ncnc(OC)c1-c1[nH]c2cc(NC(=O)[C@@H]3C[C@@H]3F)ncc2c1C` [Compound 91, (1S,2S)-N-(2-(4,6-dimethoxypyrimidin-5-yl)-3-methyl-1H-pyrrolo[3,2-c]pyridin-6-yl)-2-fluorocyclopropane-1-carboxamide], the results for the IC50 against ABL1 and on ABL1 (T315I) were 388 nM and 399 nM, respectively.
The matching figures for `COc1ncnc(NC2CC2)c1-c1cc2cc(NC(=O)[C@@H]3C[C@@H]3F)ncc2n1C` [Compound 110, (1S,2S)-N-(2-(4-(cyclopropylamino)-6-methoxypyrimidin-5-yl)-1-methyl-1H-pyrrolo[2,3-c]pyridin-5-yl)-2-fluorocyclopropane-1-carboxamide]: 280 nM and 357 nM.
